The text below walks through data of ChEMBL document CHEMBL2331539, “A comparative protease stability study of synthetic macrocyclic peptides that mimic two endocrine hormones” (Bioorg Med Chem Lett, 2013).

Square brackets hold non-standard residues; d marks the D form. Peptide text beside a SMILES is read from it. Dap = NC[C@H](N)C(=O)O

Data set [1] in a line: Stability of the compound in presence of pronase (unknown origin) assessed as degradation measured after 360 mins by HPLC analysis. Format: ADME. As to conditions: read-out: Drug degradation.
Data set [2] can be described thus: Stability of the compound in presence of pronase (unknown origin) assessed as degradation measured after 60 mins by HPLC analysis. It counts as ADME. The following applies: read-out: Drug degradation.
Data set [3] is described as follows: Stability of the compound in presence of alpha-chymotrypsin (unknown origin) assessed as degradation measured after 60 mins by HPLC analysis. As to conditions: read-out: Drug degradation. Format: ADME, Homo sapiens.
The nature of data set [4]: Stability of the compound in presence of alpha-chymotrypsin (unknown origin) assessed as degradation measured after 120 mins by HPLC analysis. The following applies: read-out: Drug degradation. Format: ADME, Homo sapiens.
Data set [5] in a line: Stability of the compound in presence of pepsin (unknown origin) assessed as degradation measured after 60 mins by HPLC analysis. It counts as ADME, Homo sapiens. As to conditions: read-out: Drug degradation.
Data set [6] deals with Vasopressin V2 receptor (Homo sapiens, UniProt P30518). The data set is described as follows: Binding affinity to vasopression V2 receptor (unknown origin) on isolated cell membrane by vasopression competition binding assay.
Sequence of Vasopressin V2 receptor (P30518 whole entry): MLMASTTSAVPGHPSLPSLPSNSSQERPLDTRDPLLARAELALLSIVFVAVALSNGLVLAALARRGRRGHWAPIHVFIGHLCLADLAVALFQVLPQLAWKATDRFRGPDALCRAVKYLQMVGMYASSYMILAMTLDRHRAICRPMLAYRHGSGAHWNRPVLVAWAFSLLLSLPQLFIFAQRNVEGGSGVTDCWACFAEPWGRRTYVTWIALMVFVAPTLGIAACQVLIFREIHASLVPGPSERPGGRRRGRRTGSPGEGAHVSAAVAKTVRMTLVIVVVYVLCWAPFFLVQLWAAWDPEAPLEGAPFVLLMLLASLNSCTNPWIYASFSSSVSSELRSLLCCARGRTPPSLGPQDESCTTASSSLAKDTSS
Data set [7] can be described thus: Stability of the compound in presence of pepsin (unknown origin) assessed as degradation measured after 120 mins by HPLC analysis. As to conditions: read-out: Drug degradation. Format: ADME, Homo sapiens.
A short description of data set [8]: Stability of the compound in presence of alpha-chymotrypsin (unknown origin) assessed as degradation measured after 360 mins by HPLC analysis. Format: ADME, Homo sapiens. As to conditions: read-out: Drug degradation.
Data set [9] is described as follows: Stability of the compound in presence of pepsin (unknown origin) assessed as degradation measured after 360 mins by HPLC analysis. It counts as ADME, Homo sapiens. The following applies: read-out: Drug degradation.
Data set [10] is described as follows: Stability of the compound in presence of pronase (unknown origin) assessed as degradation measured after 120 mins by HPLC analysis. It counts as ADME. As to conditions: read-out: Drug degradation.

Regarding `NC[C@@H]1NC(=O)CNC(=O)[C@H](CC(N)=O)NC(=O)[C@H](CCC(N)=O)NC(=O)[C@H](Cc2ccccc2)NC(=O)[C@H](Cc2ccc(O)cc2)NC1=O` (cyclo([Dap]YFQNG)), the metabolised at 6 h was 0.882% in data set [1], 20.3% in data set [8] and 2.08% in data set [9]. The figures for the metabolised at 1 h in data set [2], in data set [3] and in data set [5] were -2.07%, 6.62% and 0.716%, respectively. The metabolised at 2 h in [4] is 7.08%; in data set [7], 3.52%; in data set [10], 0.323%. Besides, the half-maximal inhibitory concentration (IC50) (as a rule, the concentration at which inhibition is half-maximal) in data set [6] was found to be 10.2 µM.

Regarding `NC(=O)CC[C@@H]1NC(=O)[C@H](Cc2ccccc2)NC(=O)[C@H](Cc2ccc(O)cc2)NC(=O)[C@@H](N)CSSC[C@@H](C(=O)N2CCC[C@H]2C(=O)N[C@@H](CCCN=C(N)N)C(=O)NCC(N)=O)NC(=O)[C@H](CC(N)=O)NC1=O` [VASOPRESSIN], the metabolised at 6 h was determined as 48.2% in data set [1], 46.1% in [8] and 80.1% in data set [9]. Besides, the metabolised at 1 h came to 4.4% in [2], 18.7% in [3] and 79.8% in [5]. Also, the values for the metabolised at 2 h in data set [4], in data set [7] and in data set [10] were 32.1%, 78.6% and 15.9%, respectively.

As for `NC(=O)CC[C@@H]1NC(=O)[C@H](Cc2ccccc2)NC(=O)[C@H](Cc2ccc(O)cc2)NC(=O)[C@H](Cc2ccc(O)cc2)NC(=O)CNC(=O)[C@H](CC(N)=O)NC1=O` (cyclo(FQNGYY)), the values for the metabolised at 6 h in data set [1], in data set [8] and in data set [9] were 64.2%, 24.7% and 5.23%, respectively. Also, the values for the metabolised at 1 h in [2], in data set [3] and in data set [5] were 27.9%, -0.98% and 5.39%, respectively. Besides, the metabolised at 2 h in data set [4] came out at 1.49%; in data set [7], 10.2%; in [10], 50.2%. Further, in data set [6], the IC50 turned out to be 2 µM.

On to `CC[C@H](C)[C@@H]1NC(=O)[C@H](Cc2ccc(O)cc2)NC(=O)[C@@H](N)CSSC[C@@H](C(=O)N2CCC[C@H]2C(=O)N[C@@H](CC(C)C)C(=O)NCC(N)=O)NC(=O)[C@H](CC(N)=O)NC(=O)[C@H](CCC(N)=O)NC1=O` [OXYTOCIN], for which the metabolised at 6 h in [1] was found to be 100%; in data set [8] it was 74.6%. Further, the metabolised at 1 h in data set [2] amounted to 69.6%; in [3] it was 25.1%. In addition, the values for the metabolised at 2 h in data set [4] and in data set [10] were 43.2% and 96.8%, respectively.

Take `CC[C@H](C)[C@@H]1NC(=O)[C@H](Cc2ccc(O)cc2)NC(=O)[C@H](CN)NC(=O)CNC(=O)[C@H](CC(N)=O)NC(=O)[C@H](CCC(N)=O)NC1=O` (cyclo([Dap]YIQNG)): the metabolised at 6 h in data set [1] came to 6.2%; in data set [8], 0.0955%; in data set [9], 4.66%. Also, the metabolised at 1 h in data set [2] was determined as 11.5%; in [3], 0.136%; in [5], 2.34%. The metabolised at 2 h in [4] was 0%; in data set [7] it was -0.41%; in [10], 2.99%.
